The values that follow are results of earlier work, collected in patent US20230390178A1, “Skin Care Compositions and Methods of Use” (Colgate-Palmolive Company, priority 2022, published 2023).

In general, Log P refers to the decadic logarithm of the partition coefficient of the neutral form, usually between octanol and water.

In the case of `O=C1O[C@H]([C@@H](O)CO)C(O)=C1O[C@H]1O[C@H](CO)[C@@H](O)[C@H](O)[C@H]1O` [ascorbyl glucoside], the “Log P” value is reported as −2.5.
